In PMC6270012, “Inhibitory Evaluation of Sulfonamide Chalcones on β-Secretase and Acylcholinesterase” (Molecules, 2012):
Entries after “also recorded” stand apart in the source; their conditions may differ. Where two headings read alike, the source gives them in different places.

How the values were obtained:
Assay type in all cases: biochemical
BACE1 [1] = target: T1, BACE1 (Homo sapiens, UniProt P56817); experiment: BACE1 FRET peptide cleavage assay; details: for Inhibition type: Lineweaver-Burk and Dixon plots
T1 construct: purchased RD System, Inc. (WI, USA)
T1 sequence (P56817 46-501): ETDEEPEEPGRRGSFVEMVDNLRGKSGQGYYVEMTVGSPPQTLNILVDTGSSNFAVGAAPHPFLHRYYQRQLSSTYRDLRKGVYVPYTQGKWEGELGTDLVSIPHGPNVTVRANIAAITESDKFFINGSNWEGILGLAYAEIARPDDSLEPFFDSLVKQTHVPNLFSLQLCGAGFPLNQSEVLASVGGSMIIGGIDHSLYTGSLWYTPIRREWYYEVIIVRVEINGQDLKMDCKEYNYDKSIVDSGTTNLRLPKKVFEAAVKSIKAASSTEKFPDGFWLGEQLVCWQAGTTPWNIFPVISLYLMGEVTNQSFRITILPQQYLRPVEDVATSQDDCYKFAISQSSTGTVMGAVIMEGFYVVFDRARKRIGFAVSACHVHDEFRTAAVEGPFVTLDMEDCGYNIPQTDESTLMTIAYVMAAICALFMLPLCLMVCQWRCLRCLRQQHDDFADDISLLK
Method: In this assay, BACE1-catalyzed proteolysis of a synthetic oligopeptide substituted with a fluorescent dye and a quencher leads to an increase in fluorescence by breaking the tether between the dye and the quencher. […] The assay was carried out according to the supplied manual with small modifications.
The assay was carried out according to the supplied manual with modifications. Briefly, a mixture of 10 μL of assay buffer (50 mM sodium acetate, pH 4.5), 10 μL of BACE1 (1.0 U/mL), 10 μL of the substrate (750 nM Rh-[…]-Quencher in 50 mM sodium acetate, pH 4.5), and 10 μL of sample dissolved in 50 mM ammonium bicarbonate buffer (pH 7.8) was incubated for 60 min at room temperature in the dark. The mixture was irradiated at 545 nm and the emission intensity at 590 nm was recorded. The inhibition ratio was obtained by the following equation: Inhibition (%) = [1 − {(S−S0)/(C−C0)}] × 100 where C was the fluorescence of the control (enzyme, buffer, and substrate) after 60 min of incubation, C0 was the fluorescence of control at zero time, S was the fluorescence of the tested samples (enzyme, sample solution, and substrate) after incubation, and S0 was the fluorescence of the tested samples at zero time. To allow for the quenching effect of the samples, the sample solution was added to the reaction mixture C, and any reduction in fluorescence by the sample was then investigated. All data are the mean of three experiments.

equine serum BChE = target: T2, equine serum BChE (Equus caballus, UniProt P81908); experiment: Cholinesterase inhibitory activity (Ellman), BChE; details: for Ki: read-out: Ki (inhibition constant) BChE
T2 construct: 2 μL of equine serum BChE (0.05 U/mL) solution; from tissue; host or cells: equine serum
T2 sequence (P81908 whole entry): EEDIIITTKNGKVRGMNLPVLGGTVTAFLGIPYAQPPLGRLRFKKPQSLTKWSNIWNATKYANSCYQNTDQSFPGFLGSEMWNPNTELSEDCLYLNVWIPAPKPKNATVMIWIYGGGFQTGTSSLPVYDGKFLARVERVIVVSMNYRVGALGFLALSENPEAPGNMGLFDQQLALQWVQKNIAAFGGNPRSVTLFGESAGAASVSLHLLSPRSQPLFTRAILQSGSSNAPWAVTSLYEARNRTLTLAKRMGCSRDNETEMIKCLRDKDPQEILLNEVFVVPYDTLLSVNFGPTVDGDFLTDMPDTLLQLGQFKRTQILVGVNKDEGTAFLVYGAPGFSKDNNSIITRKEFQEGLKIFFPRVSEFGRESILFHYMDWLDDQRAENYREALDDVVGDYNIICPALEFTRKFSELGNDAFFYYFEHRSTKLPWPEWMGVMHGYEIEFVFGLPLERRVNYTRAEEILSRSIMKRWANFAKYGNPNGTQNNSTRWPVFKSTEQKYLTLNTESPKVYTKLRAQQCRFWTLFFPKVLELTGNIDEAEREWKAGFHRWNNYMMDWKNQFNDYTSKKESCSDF
Method: (§1) Cholinesterase was assayed according to standard procedures by following the hydrolysis of acetylthiocholine iodide (AtCh) or butyrylthiocholine iodide (BtCh) by monitoring formation of 5-thio-2-nitrobenzoate from 5-5'-dithiobis(2-nitrobenzoic acid) spectrometrically at 412 nm. The reaction mixture contained 100 mM sodium phosphate buffer (pH 8.0), 20 μL of test sample solution and either 2 μL of human erythrocyte AChE (0.25 U/mL) or 2 μL of equine serum BChE (0.05 U/mL) solution, which were mixed and incubated for 10 min at room temperature. Assays were then initiated with the addition of 30 μL 5-5'-dithiobis(2-nitrobenzoic acid) (3.3 mM) and, respectively, 20 μL of AtCh (1 mM), and 7 μL of BtCh (1 mM). All assays were performed in triplicate. […] Kinetic parameters were determined using the Lineweaver-Burk double-reciprocal-plot method at increasing concentration of substrates and inhibitors.

human erythrocyte AChE = target: T3, human erythrocyte AChE (Homo sapiens, UniProt P22303); experiment: Cholinesterase inhibitory activity (Ellman), AChE; details: for IC50: read-out: IC50 erythrocytes AChE; for Ki: read-out: Ki (inhibition constant) AChE
T3 construct: 2 μL of human erythrocyte AChE (0.25 U/mL); from tissue; host or cells: human erythrocytes
T3 sequence (P22303 other isoform, or with tags, fused parts or gaps): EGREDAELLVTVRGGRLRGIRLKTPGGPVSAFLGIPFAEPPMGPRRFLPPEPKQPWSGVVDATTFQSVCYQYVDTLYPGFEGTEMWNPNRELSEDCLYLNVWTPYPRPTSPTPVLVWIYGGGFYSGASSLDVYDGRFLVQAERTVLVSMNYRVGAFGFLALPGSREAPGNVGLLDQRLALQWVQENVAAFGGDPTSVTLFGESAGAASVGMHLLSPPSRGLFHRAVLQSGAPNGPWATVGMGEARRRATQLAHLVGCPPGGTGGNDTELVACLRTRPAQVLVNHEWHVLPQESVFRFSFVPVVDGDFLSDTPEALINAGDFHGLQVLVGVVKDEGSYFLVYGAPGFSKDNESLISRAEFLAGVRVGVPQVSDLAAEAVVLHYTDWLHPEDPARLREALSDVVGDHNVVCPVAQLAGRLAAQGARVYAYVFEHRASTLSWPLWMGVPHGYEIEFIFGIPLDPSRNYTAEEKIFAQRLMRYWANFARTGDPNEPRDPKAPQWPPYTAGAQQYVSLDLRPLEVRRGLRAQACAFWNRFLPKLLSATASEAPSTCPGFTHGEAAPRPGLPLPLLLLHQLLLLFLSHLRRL
Method: as §1

BACE1 [2] = target: T1, BACE1; experiment: Slow and time-dependent inhibitory activity on BACE1 (progress curves); details: preincubation 0-60 min, progress curves 3,600 s
Method: To further investigate the inhibition mechanism, time dependence of BACE1inhibition by compound 5a was subsequently probed. The enzyme was preincubated with […] (between 0 and 60 min) and the residual enzyme activity was measured by calculating the initial velocity (Vi) of the hydrolysis (Figure 3B). Progress curves were continued to be run up for 3,600 s.
Slow and time-dependent assays and progress curves were carried out using 1 U/mL unit BACE1, and 10 μL substrate in 50 mM ammonium bicarbonate pH 7.8 at 37 °C. Enzyme activities were measured continuously for 3,600 s spectrophotometrically. To determine the kinetic parameters associated with time dependent inhibition of BACE1, progress curves for 3,600 s were obtained at one inhibitor concentration using fixed substrate concentrations. The data were analyzed using the nonlinear regression program [Sigma Plot (SPCC Inc., Chicago, IL, USA)].

[3] = BACE1 activity, mean of three experiments ± SD
[4] = BACE1, Dixon plot, read-out: Ki (inhibition constant)

| Structure (SMILES) | IC50 (BACE1 [1]; [3]) | IC50 (equine serum BChE) | Ki (equine serum BChE) | IC50 (human erythrocyte AChE) | Ki (human erythrocyte AChE) | Ki (BACE1 [1]; [4]) | further results |
| --- | --- | --- | --- | --- | --- | --- | --- |
| Cc1ccc(S(=O)(=O)Nc2ccc(C(=O)/C=C/c3ccc(O)c(O)c3)cc2)cc1 [Compound 5a, 4'-(4-Toluenesulfonamide)-3,4-dihydroxychalcone] | 0.21 ± 0.02 µM | 19.5 µM | 9.8 µM | 75.9 µM | 55.8 µM |  | Inhibition type (BACE1 [1]; BACE1): mixed inhibitor; Ki (BACE1 [1]; BACE1, read-out: Ki): 0.07 µM; Reversibility of inhibition (BACE1 [1]; BACE1, residual activity versus enzyme concentration): reversible inhibitor; Time dependence of inhibition (BACE1 [2]): slow binding inhibitor; also recorded: time-dependent |
| Nc1ccc(S(=O)(=O)Nc2ccc(C(=O)/C=C/c3ccc(O)c(O)c3)cc2)cc1 [Compound 5d, 4′-(4-Aminobenzenesulfonamide)-3,4-dihydroxychalcone] | 0.69 ± 0.04 µM |  |  |  |  | 0.69 µM |  |
| O=C(/C=C/c1ccc(O)c(O)c1)c1ccc(NS(=O)(=O)c2ccccc2)cc1 [Compound 5b, 4′-(Benzenesulfonamide)-3,4-dihydroxychalcone] | 4.59 ± 1.5 µM | 79 µM | 63.5 µM | 75.4 µM | 57.2 µM | 3.78 µM |  |
| Nc1ccc(C(=O)/C=C/c2ccc(O)cc2)cc1 [Compound 1, 4′-Amino-4-hydroxychalcone] | 48.2 ± 1.2 µM |  |  |  |  | 43.8 µM |  |
| Cc1ccc(S(=O)(=O)Nc2ccc(C(=O)/C=C/c3ccc(O)cc3O)cc2)cc1 [Compound 6, 4'-(4-Toluenesulfonamide)-2,4-dihydroxychalcone] | 3.6 ± 0.3 µM |  |  |  |  | 1.89 µM |  |
| Cc1ccc(S(=O)(=O)Nc2ccc(C(=O)/C=C/c3ccc(O)cc3)cc2)cc1 [Compound 4a, 4'-(4-Toluenesulfonamide)-4-hydroxychalcone] | 1.44 ± 0.2 µM | 47.4 µM | 25.3 µM | 56.1 µM | 40.4 µM | 0.56 µM | Inhibition type (BACE1 [1]; BACE1): mixed type |
| Cc1ccc(S(=O)(=O)Nc2ccc(C(=O)/C=C/c3ccccc3)cc2)cc1 [Compound 4b, 4′-(4-Toluenesulfonamido)-chalcone] | 169 ± 2.4 µM |  |  |  |  |  |  |
| Nc1ccc(C(=O)/C=C/c2ccc(O)c(O)c2)cc1 [Compound 2, 4′-Amino-3,4-dihydroxychalcone] | 17.7 ± 0.8 µM |  |  |  |  | 10.5 µM |  |
| Nc1ccc(S(=O)(=O)Nc2ccc(C(=O)/C=C/c3ccc(O)cc3)cc2)cc1 [Compound 4f, 4′-(4-Aminobenzenesulfonamide)-4-hydroxychalcone] | 5.58 ± 1.4 µM | 34.3 µM | 19 µM | 95.8 µM | 61.5 µM | 4.19 µM |  |
| O=C(/C=C/c1ccc(O)c(O)c1)c1ccc(NS(=O)(=O)c2ccc(O)cc2)cc1 [Compound 5c, 4′-(4-Hydroxybenzenesulfonamide)-3,4-hydroxychalcone] | 0.62 ± 0.03 µM | 24.7 µM | 26.6 µM | 57.4 µM | 47.6 µM | 0.56 µM |  |
| COc1ccc(S(=O)(=O)Nc2ccc(C(=O)/C=C/c3ccc(O)cc3)cc2)cc1 [Compound 4e, 4′-(4-Methoxybenzenesulfonamido)-4-hydroxychalcone] | 79.3 ± 2.3 µM |  |  |  |  | 75.2 µM |  |
| O=C(/C=C/c1ccc(O)cc1)c1ccc(NS(=O)(=O)c2ccccc2)cc1 [Compound 4c, 4′-(Benzenesulfonamide)-4-hydroxychalcone] | 6.28 ± 0.7 µM | 75 µM | 72.2 µM | 83.3 µM | 80.3 µM | 5.83 µM |  |
| O=C(/C=C/c1ccc(O)cc1)c1ccc(NS(=O)(=O)c2ccc(F)cc2)cc1 [Compound 4h, 4′-(4-Fluorobenzenesulfonamide)-4-hydroxychalcone] | 120 ± 3.2 µM |  |  |  |  |  |  |
| O=C(/C=C/c1ccc(O)c(O)c1)c1ccc(NS(=O)(=O)c2ccc(F)cc2)cc1 [Compound 5f, 4′-(4-Fluorobenzenesulfonamide)-3,4-dihydroxychalcone] | 8.95 ± 1 µM |  |  |  |  | 10.8 µM |  |
| O=C(/C=C/c1ccc(O)cc1)c1ccc(NS(=O)(=O)c2ccc([N+](=O)[O-])cc2)cc1 [Compound 4g, 4′-(4-Nitrobenzenesulfonamide)-4-hydroxychalcone] | 107 ± 2.7 µM |  |  |  |  | 94.8 µM |  |
| O=c1c(O)c(-c2ccc(O)cc2O)oc2cc(O)cc(O)c12 [Morin, reference compound] |  |  |  |  |  |  | IC50 (BACE1 [1]; BACE1): 12.3 µM |
| O=C(/C=C/c1ccc(O)cc1)c1ccc(NS(=O)(=O)c2ccc(O)cc2)cc1 [Compound 4d, 4′-(4-Hydroxybenzenesulfonamide)-4-hydroxychalcone] | 2.88 ± 0.5 µM |  |  |  |  | 1.49 µM |  |
| CC(=O)Nc1ccc(C(=O)/C=C/c2ccc(O)cc2)cc1 [Compound 3, 4′-Acetamido-4-hydroxychalcone] | > 200 µM |  |  |  |  |  | BACE1 inhibition (BACE1 [1]; at concentrations as high as 200 μM): inactive |
| O=C(/C=C/c1ccc(O)c(O)c1)c1ccc(NS(=O)(=O)c2ccc([N+](=O)[O-])cc2)cc1 [Compound 5e, 4′-(4-Nitrobenzenesulfonamide)-3,4-dihydroxychalcone] | 101 ± 2.4 µM |  |  |  |  | 92.4 µM |  |
